Source: patent US6207172A, “Composition for the delivery of a pharmaceutical agent to a patient” (Warner-Lambert Company, priority 1998, dated 2001)
Read-outs that look alike come from different tables or passages of the source.

Legend:
[1] = Mean particle size of the PEG/PVP formulation after filtration; assay type: physicochemical; conditions: diameter; PEG 3350/10% PVP pH 7.4 phosphate buffer formulation, filtered through 0.45 μm PTFE filter
Description: After formation of the composition for delivering a pharmaceutical agent to a patient, the composition has been successfully extruded through both 0.45 and […] nylon filters, yielding a particle size of around 500 or 300 nm, respectively. In addition, the compositions can be autoclaved. The compositions have also been freeze dried and can be reconstituted by the addition of water or a buffer.
To the melted phase were then added 3 mL of 10% PVP in pH 7.4 phosphate buffer with stirring. The mixture was stirred during cool-down to room temperature. Before administration, the formulation was filtered through a 0.45 μm PTFE filter. […] The final concentration was calculated to be 10 mg/mL.
Butyl-[2,5-dimethyl-7-(2,4,6-trimethyl-phenyl)-7H-pyrrolo[2,3-d]pyrimidin-4-yl]-ethyl-amine (CRF-1 receptor antagonist) was formulated in the PEG/PVP system as follows. Thirty milligrams of Butyl-[2,5-dimethyl-7-(2,4,6-trimethyl-phenyl)-7H-pyrrolo[2,3-d]pyrimidin- 4-yl]-ethyl-amine were dissolved in 1.5 g of molten (65° C.) PEG 3350. To the melted phase were then added 1.5 mL of 10% PVP in pH 7.4 phosphate buffer with stirring. The mixture was stirred during cool-down to room temperature. Before administration, the formulation was filtered through a 0.45 μm PTFE filter. […] The final concentration was calculated to be 10 mg/mL.

tumor-bearing mice [2] = assay: Tumor growth inhibition in tumor-bearing mice (change in tumor size from Day 1); assay type: in vivo; conditions: PEG/PVP 200 mg/kg daily vs DMA/lactate 400 mg/kg (200 mg/kg twice daily), oral gavage, 10 days
Description: (§1) Single, 200-mg/kg daily oral gavage doses of the PEG/PVP formulation were given to 3 tumor-bearing mice for 10 days.

tumor-bearing mice [3] = assay: Deaths of tumor-bearing mice during 10 days oral gavage dosing; assay type: in vivo; conditions: 3 mice
Description: as §1

[4] = Oral pharmacokinetics in fasted male Wistar rats; assay type: in vivo; conditions: for AUC(0-t) at 8 h / Cmax: rat, blood, po, 10 mg/kg, fasted male Wistar rats
Description: Single, 10-mg/kg oral gavage doses of the Butyl-[2,5-dimethyl-7-(2,4,6-trimethyl-phenyl)-7H-pyrrolo[2,3-d]pyrimidin- 4-yl]-ethyl-amine PEG/PVP formulation were given to 3 fasted male Wistar rats. In parallel, single, 10-mg/kg oral gavage doses of Butyl-[2,5-dimethyl-7-(2,4,6-trimethyl-phenyl)-7H-pyrrolo[2,3-d]pyrimidin- 4-yl]-ethyl-amine, as an aqueous suspension in 0.1% Tween 80, were administered to 3 additional fasted male Wistar rats. Blood samples were serially drawn over the 24-hour period following administration and assayed for Butyl-[2,5-dimethyl-7-(2,4,6-trimethyl-phenyl)-7H-pyrrolo[2,3-d]pyrimidin- 4-yl]-ethyl-amine concentrations.

[5] = PEG/PVP emulsion vs 0.1% Tween 80 suspension, 10 mg/kg oral

Row | AUC(0-t) at 8 h ([4]; PEG/PVP emulsion, 10 mg/kg single oral gavage, read-out: AUC(0-8), PEG/PVP-dosed rats) [ng·h/mL] | Cmax ([4]; PEG/PVP emulsion, 10 mg/kg single oral gavage, read-out: Mean Cmax, PEG/PVP emulsion group) [ng/mL] | AUC(0-t) at 8 h ([4]; aqueous suspension in 0.1% Tween 80, 10 mg/kg single oral gavage, read-out: AUC(0-8), suspension-dosed) [ng·h/mL] | Cmax ([4]; aqueous suspension in 0.1% Tween 80, 10 mg/kg single oral gavage, read-out: Mean Cmax, 0.1% Tween group) [ng/mL] | Compound | Mean particle size [1] | Tumor growth inhibition, ratio PEG/PVP emulsion to DMA/lactate preparation (tumor-bearing mice [2]) [fold] | mice that died, DMA/lactate system (tumor-bearing mice [3]; DMA/lactate, 400 mg/kg (200 mg/kg oral gavage twice daily)) | mice that died, PEG/PVP preparation (tumor-bearing mice [3]; PEG/PVP, 200 mg/kg daily oral gavage) | AUC(0-8), difference between the 2 dose groups [4, 5] | Cmax, difference between the 2 dose groups [4, 5] | half-life, difference between the 2 dose groups [4, 5]
1 | – | – | – | – | CNc1cc2c(Nc3cccc(Br)c3)ncnc2cn1 [N^4-(3-Bromo-phenyl)-N^6-methyl-pyrido[3,4-d]pyrimidine-4,6-diamine] | approximately 400 nm | 4 | all 3 mice dosed with the DMA/lactate system died | None of the mice given the PEG/PVP preparation died | – | – | –
2 | 283 | 283 | 267 | 267 | CCCCN(CC)c1nc(C)nc2c1c(C)cn2-c1c(C)cc(C)cc1C [Butyl-[2,5-dimethyl-7-(2,4,6-trimethyl-phenyl)-7H-pyrrolo[2,3-d]pyrimidin-4-yl]-ethyl-amine] | approximately 420 nm | – | – | – | Neither Cmax, AUC(0-8), nor half-life differed significantly between the 2 dose groups | Neither Cmax, AUC(0-8), nor half-life differed significantly between the 2 dose groups | Neither Cmax, AUC(0-8), nor half-life differed significantly between the 2 dose groups
